Laboratory results from patent publication US7871999B2, “Substituted thiazoles and their use for producing drugs” (Gruenenthal GmbH, priority 2005, dated 2011).

How the values were obtained:
mGluR5 receptor = molecular target: T1, mGluR5 receptor (Sus scrofa, UniProt I3LUI7); assay: Inhibition of [^3H]-MPEP binding in the mGluR5 receptor binding assay (pig brain homogenate); conditions: 5 nM [^3H]-MPEP
T1 construct: pig brain hemispheres without medulla, cerebellum and pons ... differential centrifugation at 900×g and 40,000×g
Procedure: I. Method for Determining the Inhibition of [^3H]-MPEP Binding in the mGluR5 Receptor Binding Assay […]
The batches are then filtered with the assistance of a Brandel Cell Harvester (Brandel, Robotic 9600 model) on Unifilter plates with glass filter mats (Perkin Elmer, order number 6005177) and then washed 3 times with buffer (as above) using 250 μl per sample. The filter plates are then dried for 60 min at 55° C. Then 30 μl of Ultima Gold™ scintillating material (Packard BioScience, order number 6013159) is added per well and after 3 hours the samples are measured using the β counter (Microbeta, Perkin Elmer). Nonspecific binding is determined by the addition of 10 μM MPEP (Tocris, order number 1212).

rats = assay: Formaldehyde test in rats (phase 2, chronic pain component); format: in vivo; conditions: rat
Procedure: III. Formaldehyde Test in Rats: The formaldehyde test (Dubuisson, D. and Dennis, S. G., 1977, Pain, 4, 161-174) is a model of both acute and chronic pain. A biphasic nociceptive response is induced in freely mobile test animals by a single formaldehyde injection into the dorsal side of a hind paw, said response being detected by the observation of three clearly distinguishable behaviour patterns. The response is in two phases: phase 1=immediate response (duration up to 10 min; paw shaking, licking), phase 2=late response (after a resting phase; likewise paw shaking, licking; duration up to 60 min). The 1st phase reflects direct stimulation of the peripheral nocisensors with an elevated spinal nociceptive input or glutamate release (acute pain phase); the 2nd phase reflects spinal and peripheral hypersensitisation (chronic pain phase). In the investigations presented here, it was the chronic pain component (phase 2) which was evaluated. […] The specific behavioural changes, such as raising and shaking the paw, changes in weight bearing of the animal and biting and licking responses are observed and recorded over the observation period of 21 to 27 min after the formaldehyde injection. The various behaviours are summarised as a “pain rate” (PR), which is the calculated nociceptive response averaged over 3 min sub-intervals. […]

T1 sequence (I3LUI7 1-1212): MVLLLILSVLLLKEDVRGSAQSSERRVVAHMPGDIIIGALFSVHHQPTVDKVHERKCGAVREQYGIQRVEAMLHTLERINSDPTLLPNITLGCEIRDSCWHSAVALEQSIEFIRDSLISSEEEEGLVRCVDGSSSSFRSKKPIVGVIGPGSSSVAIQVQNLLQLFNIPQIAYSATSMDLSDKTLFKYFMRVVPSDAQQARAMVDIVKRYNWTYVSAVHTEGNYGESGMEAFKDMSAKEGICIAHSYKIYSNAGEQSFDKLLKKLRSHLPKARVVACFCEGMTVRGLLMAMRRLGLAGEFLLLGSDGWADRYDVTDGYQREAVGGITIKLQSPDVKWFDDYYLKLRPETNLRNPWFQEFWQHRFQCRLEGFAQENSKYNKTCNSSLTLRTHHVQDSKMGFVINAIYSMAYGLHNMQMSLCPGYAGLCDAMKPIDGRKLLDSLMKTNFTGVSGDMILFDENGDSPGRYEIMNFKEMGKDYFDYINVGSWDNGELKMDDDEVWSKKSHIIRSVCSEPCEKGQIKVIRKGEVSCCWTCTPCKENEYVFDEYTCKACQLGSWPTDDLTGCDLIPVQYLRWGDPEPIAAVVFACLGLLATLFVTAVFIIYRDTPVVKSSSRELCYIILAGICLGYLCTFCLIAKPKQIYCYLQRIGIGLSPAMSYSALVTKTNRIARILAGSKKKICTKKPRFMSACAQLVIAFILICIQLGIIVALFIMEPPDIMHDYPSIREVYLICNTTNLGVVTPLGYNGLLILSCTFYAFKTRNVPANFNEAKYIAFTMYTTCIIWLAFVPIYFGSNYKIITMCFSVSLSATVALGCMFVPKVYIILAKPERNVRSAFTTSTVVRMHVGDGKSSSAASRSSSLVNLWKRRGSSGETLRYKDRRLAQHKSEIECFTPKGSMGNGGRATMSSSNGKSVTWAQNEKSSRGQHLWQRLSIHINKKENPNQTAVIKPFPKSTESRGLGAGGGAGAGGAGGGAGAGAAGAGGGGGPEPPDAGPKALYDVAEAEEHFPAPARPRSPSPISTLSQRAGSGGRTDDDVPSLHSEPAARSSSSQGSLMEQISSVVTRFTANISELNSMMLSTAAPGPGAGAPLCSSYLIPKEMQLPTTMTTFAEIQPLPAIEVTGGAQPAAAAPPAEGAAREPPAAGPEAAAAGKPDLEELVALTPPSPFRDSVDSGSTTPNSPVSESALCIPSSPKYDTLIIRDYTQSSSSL

IC50 (mGluR5 receptor): 5.6 nM
Compound: CN(CCNC(=O)C#Cc1cccc(Cl)c1)c1nccs1.Cl [Example 23, N-(2-(Methyl(thiazol-2-yl)amino)ethyl)-3-(3-chlorophenyl)-propiolamide hydrochloride]
ED50 (rats; iv, i.v. administration): 1 mg/kg | inhibition in the formaldehyde test (rats; oral administration of 10 mg/kg): 38%
